These results are taken from patent US20250163104A1, “MACROCYCLIC IMMUNOMODULATORS” (priority 2021, published 2025).

The assay addresses T1, human PD-1 / PD-L1-Ig binding on Jurkat cell line over-expressing human PD-1 (Jurkat-PD-1) (Homo sapiens, UniProt Q15116).
T1 construct: expressed in transfected cells; host or cells: Jurkat
Kind of assay: Jurkat-PD-1 Cell Binding High-Content Screening Assay (CBA). The note with it: Jurkat-PD-1 cells, PE-labeled PD-L1-Ig 20 nM final; read-out: Jurkat HPD1_PDL1 IC50. The class given is cell-based. In outline: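 Read-out: high-content imaging of PE-tagged PD-L1-Ig bound to Jurkat cells overexpressing human PD-1, after fixation with 4% paraformaldehyde and Hoechst 33342 nuclear staining. Ligand was used at 20 nM final for 1 hour, after a 2 h compound exposure at 37° C in serum-containing DMEM.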

SMILES strings stand for the structures. Where a SMILES comes first, the peptide text is derived from it. Bridges are numbered along the chain shown (N, C = ends). [ ]: non-standard residue; d: D form. The star is where a group is joined. ξ: configuration not given here. Phe(4-COOH) = N[C@@H](Cc1ccc(C(=O)O)cc1)C(=O)O; Phe(4-CH2NH2) = NCc1ccc(C[C@H](N)C(=O)O)cc1; Bip = N[C@@H](Cc1ccc(-c2ccccc2)cc1)C(=O)O; Phe(3-Me) = Cc1cccc(C[C@H](N)C(=O)O)c1; Val(3-OH) = CC(C)(O)[C@H](N)C(=O)O; 4Pal = N[C@@H](Cc1ccncc1)C(=O)O; 3Thi = N[C@@H](Cc1ccsc1)C(=O)O; Cha = N[C@@H](CC1CCCCC1)C(=O)O; Cit = NC(=O)NCCC[C@H](N)C(=O)O; Gly(cPr) = N[C@H](C(=O)O)C1CC1; Ile(3ξ) = CCC(C)[C@H](N)C(=O)O; Thr(3ξ) = CC(O)[C@H](N)C(=O)O; Ahp(2) = CCCCC[C@H](N)C(=O)O; Carboxymethyl = O=C(O)C*; Nle = CCCC[C@H](N)C(=O)O; Orn = NCCC[C@H](N)C(=O)O; Dab = NCC[C@H](N)C(=O)O; Dap = NC[C@H](N)C(=O)O; Piv = CC(C)(C)C(=O)*

T1 sequence (Q15116 25-288): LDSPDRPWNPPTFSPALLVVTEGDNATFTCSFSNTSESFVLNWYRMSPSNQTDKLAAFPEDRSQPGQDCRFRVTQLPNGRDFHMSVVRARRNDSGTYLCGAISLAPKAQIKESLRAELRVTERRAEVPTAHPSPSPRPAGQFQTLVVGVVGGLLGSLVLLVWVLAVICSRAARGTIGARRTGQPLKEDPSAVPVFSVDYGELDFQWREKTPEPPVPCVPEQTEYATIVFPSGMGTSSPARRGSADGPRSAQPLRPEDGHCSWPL

Usually IC50 stands for the concentration at which inhibition is half-maximal. For the molecule `CC(C)C[C@H]1NC(=O)[C@H](CCCN)NC(=O)[C@H](CCCNC(N)=O)NC(=O)[C@H](Cc2ccc(-c3ccccc3)cc2)NC(=O)[C@H](C2CC2)NC(=O)[C@H](Cc2c[nH]c3ccccc23)NC(=O)[C@H](CC(=O)O)NC(=O)[C@H](Cc2ccc(OCC(=O)O)cc2)NC(=O)[C@H](CN)NC(=O)CSC[C@@H](C(=O)N[C@@H](C)C(N)=O)NC(=O)[C@H]([C@@H](C)O)NC(=O)[C@H](C(C)C)NC(=O)[C@H](CC2CCCCC2)NC(=O)[C@H](CCN)NC1=O` [Compound 1369] ({CH2CO}-[Dap]Y(Carboxymethyl)DW[Gly(cPr)][Bip][Cit][Orn][dL][Dab][Cha]VTCA-NH2; thioether N-14), the IC50 is 19.9 nM.
With `Cc1cccc(C[C@@H]2NC(=O)[C@H](CC(=O)O)NC(=O)[C@H](Cc3ccc(OCC(=O)O)cc3)NC(=O)[C@H](Cc3ccsc3)NC(=O)CSC[C@@H](C(=O)N[C@H](C)C(N)=O)NC(=O)[C@H](CO)NC(=O)[C@H](C(C)(C)O)NC(=O)[C@H](CC3CCCCC3)NC(=O)[C@H](CCN)NC(=O)[C@@H](CC(C)C)NC(=O)[C@H](CCCN)NC(=O)[C@H](Cc3ccc(OCC(=O)O)cc3)NC(=O)[C@H](Cc3ccc(-c4ccccc4)cc3)NC(=O)[C@H](Cc3ccc(OCC(=O)O)cc3)NC2=O)c1` [Compound 2654] ({CH2CO}-[3Thi]Y(Carboxymethyl)D[Phe(3-Me)]Y(Carboxymethyl)[Bip]Y(Carboxymethyl)[Orn][dL][Dab][Cha][Val(3-OH)]SC[dA]-NH2; thioether N-14), the IC50 turned out to be 6.4 nM.
`CC(C)C[C@@H]1NC(=O)[C@H](CCN)NC(=O)[C@@H](CC(C)C)NC(=O)[C@H](CCCN)NC(=O)[C@H](CCCNC(=N)N)NC(=O)[C@H](Cc2ccc(-c3ccccc3)cc2)NC(=O)[C@H](C(C)C)NC(=O)[C@H](Cc2c[nH]c3ccccc23)NC(=O)[C@H](CC(=O)O)NC(=O)[C@H](Cc2ccc(OCC(=O)O)cc2)NC(=O)[C@H](Cc2ccncc2)NC(=O)CSC[C@@H](C(=O)N[C@@H](C)C(N)=O)NC(=O)[C@H]([C@@H](C)O)NC(=O)[C@H](C(C)C)NC1=O` [Compound 1242] ({CH2CO}-[4Pal]Y(Carboxymethyl)DWV[Bip]R[Orn][dL][Dab]LVTCA-NH2; thioether N-14): the IC50 was found to be 28.9 nM.
Regarding `CC(C)C[C@H]1NC(=O)[C@H](CCCN)NC(=O)[C@H](C(C)C)NC(=O)[C@H](Cc2ccc(-c3ccccc3)cc2)NC(=O)[C@H](C(C)C)NC(=O)[C@H](Cc2c[nH]c3ccccc23)NC(=O)[C@H](CC(=O)O)NC(=O)[C@H](Cc2ccc(C(=O)O)cc2)NC(=O)[C@H](Cc2ccc(OCC(=O)O)cc2)NC(=O)CSC[C@@H](C(=O)N[C@@H](C)C(N)=O)NC(=O)[C@H](CCCNC(=N)N)NC(=O)[C@H](C(C)C)NC(=O)[C@H](CC2CCCCC2)NC(=O)[C@H](CCN)NC1=O` [Compound 1748] ({CH2CO}-Y(Carboxymethyl)[Phe(4-COOH)]DWV[Bip]V[Orn][dL][Dab][Cha]VRCA-NH2; thioether N-14), the IC50 was determined as 7.6 nM.
On to `Cc1cccc(C[C@@H]2NC(=O)[C@H](CC(=O)O)NC(=O)[C@H](Cc3ccc(C(=O)O)cc3)NC(=O)[C@H](CN)NC(=O)CSC[C@@H](C(N)=O)NC(=O)[C@H](CO)NC(=O)[C@H](C(C)C)NC(=O)[C@H](CC3CCCCC3)NC(=O)[C@H](CCN)NC(=O)[C@@H](CC(C)C)NC(=O)[C@H](CCCN)NC(=O)[C@H](C(C)C)NC(=O)[C@H](Cc3ccc(-c4ccccc4)cc3)NC(=O)[C@H](Cc3ccc(CN)cc3)NC2=O)c1` [Compound 2031] ({CH2CO}-[Dap][Phe(4-COOH)]D[Phe(3-Me)][Phe(4-CH2NH2)][Bip]V[Orn][dL][Dab][Cha]VSC-NH2; thioether N-14), for which the concentration for half-maximal inhibition (IC50) amounted to 10.9 nM.
The result for `CCCCC[C@@H]1NC(=O)[C@H](CCN)NC(=O)[C@@H](CC(C)C)NC(=O)[C@H](CCCN)NC(=O)[C@H](CCCNC(N)=O)NC(=O)[C@H](Cc2ccc(-c3ccccc3)cc2)NC(=O)[C@H](C(C)C)NC(=O)[C@H](Cc2c[nH]c3ccccc23)NC(=O)[C@H](CC(=O)O)NC(=O)[C@H](Cc2ccc(OCC(=O)O)cc2)NC(=O)[C@H](CN)NC(=O)CSC[C@@H](C(=O)N[C@@H](C)C(N)=O)NC(=O)[C@H]([C@@H](C)O)NC(=O)[C@H](C(C)C)NC1=O` [Compound 1347] ({CH2CO}-[Dap]Y(Carboxymethyl)DWV[Bip][Cit][Orn][dL][Dab][Ahp(2)]VTCA-NH2; thioether N-14) reads 26.4 nM; that for `CC(C)C[C@@H]1NC(=O)[C@H](Cc2c[nH]c3ccccc23)NC(=O)[C@H](CC(=O)O)NC(=O)[C@H](Cc2ccc(C(=O)O)cc2)NC(=O)[C@H](Cc2ccc(OCC(=O)O)cc2)NC(=O)CSC[C@@H](C(=O)NCC(N)=O)NC(=O)[C@H](CO)NC(=O)[C@H](C(C)C)NC(=O)[C@H](CC(C)C)NC(=O)[C@H](CC(N)=O)NC(=O)[C@@H](CC(C)C)NC(=O)[C@H](CN)NC(=O)[C@H](C(C)C)NC(=O)[C@H](Cc2ccc(-c3ccccc3)cc2)NC1=O` [Compound 1275] ({CH2CO}-Y(Carboxymethyl)[Phe(4-COOH)]DWL[Bip]V[Dap][dL]NLVSCG-NH2; thioether N-14), 13.8 nM; that for `Cc1cccc(C[C@@H]2NC(=O)[C@H](CC(=O)O)NC(=O)[C@H](Cc3ccc(OCC(=O)O)cc3)NC(=O)[C@H](CN)NC(=O)CSC[C@@H](C(=O)N[C@@H](CCNC(=O)C(C)(C)C)C(N)=O)NC(=O)[C@H](CCCN)NC(=O)[C@H](C(C)C)NC(=O)[C@H](CC3CCCCC3)NC(=O)[C@H](CCN)NC(=O)[C@@H](CC(C)C)NC(=O)[C@H](CCCN)NC(=O)[C@H](Cc3ccc(O)cc3)NC(=O)[C@H](Cc3ccc(-c4ccccc4)cc3)NC(=O)[C@H](Cc3ccc(O)cc3)NC2=O)c1` [Compound 2042] ({CH2CO}-[Dap]Y(Carboxymethyl)D[Phe(3-Me)]Y[Bip]Y[Orn][dL][Dab][Cha]V[Orn]C[Dab](Piv)-NH2; thioether N-14), 6.5 nM.
The result for `CCC(C)[C@@H]1NC(=O)[C@H](Cc2ccc(-c3ccccc3)cc2)NC(=O)[C@H](C(C)C)NC(=O)[C@H](Cc2cccc(C)c2)NC(=O)[C@H](CC(=O)O)NC(=O)[C@H](Cc2ccc(C(=O)O)cc2)NC(=O)[C@H](Cc2ccncc2)NC(=O)CSC[C@@H](C(N)=O)NC(=O)[C@H](CO)NC(=O)[C@H](C(C)C)NC(=O)[C@H](CC2CCCCC2)NC(=O)[C@H](CCN)NC(=O)[C@@H](CC(C)C)NC(=O)[C@H](CCCN)NC1=O` (stereo partly drawn) [Compound 2276] ({CH2CO}-[4Pal][Phe(4-COOH)]D[Phe(3-Me)]V[Bip][Ile(3ξ)][Orn][dL][Dab][Cha]VSC-NH2; thioether N-14) reads 26.6 nM; that for `Cc1cccc(C[C@@H]2NC(=O)[C@H](CCN)NC(=O)[C@@H](CC(C)C)NC(=O)[C@H](CCCN)NC(=O)[C@H](CCC(=O)O)NC(=O)[C@H](Cc3ccc(-c4ccccc4)cc3)NC(=O)[C@H](C(C)C)NC(=O)[C@H](Cc3c[nH]c4ccccc34)NC(=O)[C@H](CC(=O)O)NC(=O)[C@H](Cc3ccc(OCC(=O)O)cc3)NC(=O)[C@H](CN)NC(=O)CSC[C@@H](C(=O)N[C@@H](C)C(N)=O)NC(=O)[C@H]([C@@H](C)O)NC(=O)[C@H](C(C)C)NC2=O)c1` [Compound 1470] ({CH2CO}-[Dap]Y(Carboxymethyl)DWV[Bip]E[Orn][dL][Dab][Phe(3-Me)]VTCA-NH2; thioether N-14), 54.6 nM; that for `CC(C)C[C@H]1NC(=O)[C@H](CCCN)NC(=O)[C@H](C(C)C)NC(=O)[C@H](Cc2ccc(-c3ccccc3)cc2)NC(=O)[C@H](C(C)C)NC(=O)[C@H](Cc2c[nH]c3ccccc23)NC(=O)[C@H](CC(=O)O)NC(=O)[C@H](Cc2ccc(O)cc2)NC(=O)[C@H](CCCNC(=N)N)NC(=O)CSC[C@@H](C(=O)N[C@@H](C)C(N)=O)NC(=O)[C@H](C(C)O)NC(=O)[C@H](C(C)C)NC(=O)[C@H](CC2CCCCC2)NC(=O)[C@H](CCN)NC1=O` (stereo partly drawn) [Compound 2524] ({CH2CO}-RYDWV[Bip]V[Orn][dL][Dab][Cha]V[Thr(3ξ)]CA-NH2; thioether N-14), 12.2 nM.
As for `CC(C)C[C@H]1NC(=O)[C@H](CCCN)NC(=O)[C@H](CCCCN)NC(=O)[C@H](Cc2ccc(-c3ccccc3)cc2)NC(=O)[C@H](C(C)C)NC(=O)[C@H](Cc2c[nH]c3ccccc23)NC(=O)[C@H](CC(=O)O)NC(=O)[C@H](Cc2ccncc2)NC(=O)[C@H](CN)NC(=O)CSC[C@@H](C(=O)N[C@@H](CCCN)C(N)=O)NC(=O)[C@H](CCCN)NC(=O)[C@H](C(C)C)NC(=O)[C@H](CC2CCCCC2)NC(=O)[C@H](CCN)NC1=O` [Compound 2253] ({CH2CO}-[Dap][4Pal]DWV[Bip]K[Orn][dL][Dab][Cha]V[Orn]C[Orn]-NH2; thioether N-14), the IC50 was found to be 138 nM.
`CC(C)C[C@@H]1NC(=O)[C@H](CCN)NC(=O)[C@@H](CC(C)C)NC(=O)[C@H](C)NC(=O)[C@H](CCCNC(=N)N)NC(=O)[C@H](Cc2ccc(-c3ccccc3)cc2)NC(=O)[C@H](C(C)C)NC(=O)[C@H](Cc2c[nH]c3ccccc23)NC(=O)[C@H](CC(=O)O)NC(=O)[C@H](Cc2ccc(O)cc2)NC(=O)[C@H](CC(N)=O)NC(=O)CSC[C@@H](C(=O)N[C@@H](C)C(N)=O)NC(=O)[C@H]([C@@H](C)O)NC(=O)[C@H](C(C)C)NC1=O` [Compound 1001] ({CH2CO}-NYDWV[Bip]RA[dL][Dab]LVTCA-NH2; thioether N-14): the IC50 is 140 nM.
For `CCCC[C@@H]1NC(=O)[C@H](CCN)NC(=O)[C@@H](CC(C)C)NC(=O)[C@H](CCCN)NC(=O)[C@H](C(C)C)NC(=O)[C@H](Cc2ccc(-c3ccccc3)cc2)NC(=O)[C@H](CC(C)C)NC(=O)[C@H](Cc2c[nH]c3ccccc23)NC(=O)[C@H](CC(=O)O)NC(=O)[C@H](Cc2ccc(OCC(=O)O)cc2)NC(=O)[C@H](Cc2ccncc2)NC(=O)CSC[C@@H](C(=O)NCC(N)=O)NC(=O)[C@H](CO)NC(=O)[C@H](C(C)C)NC1=O` [Compound 1407] ({CH2CO}-[4Pal]Y(Carboxymethyl)DWL[Bip]V[Orn][dL][Dab][Nle]VSCG-NH2; thioether N-14), the IC50 was 7.9 nM.
